Data on 53 compounds can be found in patent US10723733B2, “Hepatitis B antiviral agents” (Enanta Pharmaceuticals, Inc., priority 2017, dated 2020).

Where only a bound is given, the exact number is not on record here.

The EC50 is the concentration giving half of the maximal effect.

One experiment deals with HBV. Briefly: HepAD38 antiviral assay: reduction of viral product accumulation (virion DNA by qPCR, HBsAg/HBeAg by ELISA). The class given is cell-based. Conditions: Hepatitis B virus, 120 h; HepAD38 cells; 50% reduction of viral product accumulation vs no drug controls; five days after compound addition; class symbols. As to the method: Methods: HepAD38 cells are maintained as previously reported (Ladner et al, Antimicrob. Agents Chemother. 1997, […], 1715). Briefly, cells are passaged upon attaining confluency in DMEM/F12 media in the presence of 10% FBS, Penn/Strep, 250 μg/mL G418, and 1 μg/ml tetracycline. Novel compounds are screened by first washing cells three times with PBS to remove tetracycline, and plating in 96 well plates at 35,000 cells/well. Compounds dissolved in DMSO are then diluted 1:200 into wells containing cells. Five days after compound addition, material is harvested for analysis. For an extended 8 day analysis, cells are plated and treated as described above, but media and compound are refreshed on d2 and d5 post initial treatment.
On harvest day, virion DNA is obtained by lysing with Sidestep Lysis and Stabilization Buffer and then quantified via quantitative real time PCR. Commercially available ELISA kits are used to quantitate the viral proteins HBsAg (Alpco) or HbeAg (US Biological) by following the manufacturer's recommended protocol after diluting samples to match the linear range of their respective assays. Irrespective of readout, compound concentrations that reduce viral product accumulation in the cell lysates or supernatants by 50% relative to no drug controls (EC50) are reported; EC50 ranges are as follows: A<0.1 μM; B 0.1-1 μM; C>1 μM.
In general terms: In qPCR the cycle at which signal appears reflects the starting amount.
Turning to `CC(C)(C)OC(=O)N[C@H]1CC2=C(c3cnn(C(F)F)c3)[C@H](c3ccc(F)cc3Cl)N=C(c3nccs3)N2C1` [Example 2], the EC50 lay in the range of 100 to 1000 nM.

Turning to `CC(C)n1cc(C2=C3C[C@H](NS(=O)(=O)C4CC4)CN3C(c3nccs3)=N[C@H]2c2ccc(F)cc2Cl)cn1` [Example 5], the EC50 was less than 100 nM.

Take `O=S(=O)(N[C@H]1CC2=C(c3cnn(CC(F)(F)F)c3)[C@H](c3ccc(F)cc3Cl)N=C(c3nccs3)N2C1)C1CC1` [Example 7]: the EC50 was less than 100 nM.

`COC(=O)N[C@H]1CC2=C(c3cnn(C(F)F)c3)[C@H](c3ccc(F)cc3Cl)N=C(c3nccs3)N2C1` [Example 14] showed an EC50 of less than 100 nM.

The compound `CN(C)C(=O)N[C@H]1CC2=C(c3cnn(C(F)F)c3)[C@H](c3ccc(F)cc3Cl)N=C(c3nccs3)N2C1` [Example 18] gave an EC50 of less than 100 nM.

The compound `O=S(=O)(N[C@H]1CC2=C(c3cnn(C(F)F)c3)[C@H](c3ccc(F)cc3Cl)N=C(c3nccs3)N2C1)N1CCCC1` [Example 19] returned an EC50 of less than 100 nM.

Compound `CCS(=O)(=O)N[C@H]1CC2=C(c3cnn(C(F)F)c3)[C@H](c3ccc(F)cc3Cl)N=C(c3nccs3)N2C1` [Example 21] gave an EC50 of less than 100 nM.

Turning to `CCCS(=O)(=O)N[C@H]1CC2=C(c3cnn(C(F)F)c3)[C@H](c3ccc(F)cc3Cl)N=C(c3nccs3)N2C1` [Example 22], the EC50 was less than 100 nM.

Compound `CCCCS(=O)(=O)N[C@H]1CC2=C(c3cnn(C(F)F)c3)[C@H](c3ccc(F)cc3Cl)N=C(c3nccs3)N2C1` [Example 23] registered an EC50 of less than 100 nM.

Compound `CC(C)S(=O)(=O)N[C@H]1CC2=C(c3cnn(C(F)F)c3)[C@H](c3ccc(F)cc3Cl)N=C(c3nccs3)N2C1` [Example 24] came in with an EC50 of less than 100 nM.

The compound `CS(=O)(=O)OC[C@@]1(F)CC2=C(c3cnn(C(F)F)c3)[C@H](c3ccc(F)cc3Cl)N=C(c3nccs3)N2C1` [Example 35] came in with an EC50 of 100 to 1000 nM.

`CS(=O)(=O)NCC1(F)CC2=C(c3cnn(C(F)F)c3)[C@H](c3ccc(F)cc3Cl)N=C(c3nccs3)N2C1` (some centres unmarked) [Example 43] had an EC50 of 100 to 1000 nM.

Turning to `CN(C)C(=O)NCC1(F)CC2=C(c3cnn(C(F)F)c3)[C@H](c3ccc(F)cc3Cl)N=C(c3nccs3)N2C1` (some centres unmarked) [Example 44], the EC50 lay within 100 to 1000 nM.

Turning to `OC1CCCC1CC1=C(c2cnn(C(F)F)c2)[C@H](c2ccc(F)cc2Cl)N=C(c2nccs2)N1` (some centres unmarked) [Example 45], the EC50 is 100 to 1000 nM.

Compound `OC1CCCCC1CC1=C(c2cnn(C(F)F)c2)[C@H](c2ccc(F)cc2Cl)N=C(c2nccs2)N1` (some centres unmarked) [Example 46] came in with an EC50 of 100 to 1000 nM.

In turn, `CS(=O)(=O)OC[C@]1(N=[N+]=[N-])CC2=C(c3cnn(C(F)F)c3)[C@H](c3ccc(F)cc3Cl)N=C(c3nccs3)N2C1` [Example 49] yielded an EC50 of 100 to 1000 nM.

Compound `[N-]=[N+]=N[C@]1(CO)CC2=C(c3cnn(C(F)F)c3)[C@H](c3ccc(F)cc3Cl)N=C(c3nccs3)N2C1` [Example 50] had an EC50 of less than 100 nM.

Consider `CS(=O)(=O)OC[C@@]1(N=[N+]=[N-])CC2=C(c3cnn(C(F)F)c3)[C@H](c3ccc(F)cc3Cl)N=C(c3nccs3)N2C1` [Example 51], for which the EC50 lay within 100 to 1000 nM.

In turn, `COC(=O)OC[C@@]1(N=[N+]=[N-])CC2=C(c3cnn(C(F)F)c3)[C@H](c3ccc(F)cc3Cl)N=C(c3nccs3)N2C1` [Example 55] came in with an EC50 of less than 100 nM.

Take `CC(=O)OC[C@@]1(N=[N+]=[N-])CC2=C(c3cnn(C(F)F)c3)[C@H](c3ccc(F)cc3Cl)N=C(c3nccs3)N2C1` [Example 59]: the EC50 was less than 100 nM.

The same experiment, now with this note: Hepatitis B virus, 120 h; HepAD38 cells; 50% reduction of viral product accumulation vs no drug controls; five days after compound addition; given as numeric bound.
The compound `O=S(=O)(N[C@H]1CC2=C(c3cc[nH]n3)[C@H](c3ccc(F)cc3Cl)N=C(c3nccs3)N2C1)C1CC1` [Example 4] returned an EC50 greater than 100 nM.

Turning to `CS(=O)(=O)NC(=O)N[C@H]1CC2=C(c3cnn(C(F)F)c3)[C@H](c3ccc(F)cc3Cl)N=C(c3nccs3)N2C1` [Example 15], the EC50 is greater than 100 nM.

In the case of `O=C(N[C@H]1CC2=C(c3cnn(C(F)F)c3)[C@H](c3ccc(F)cc3Cl)N=C(c3nccs3)N2C1)NS(=O)(=O)C1CC1` [Example 16], the EC50 is greater than 100 nM.

Compound `O=C(N[C@H]1CC2=C(c3cnn(C(F)F)c3)[C@H](c3ccc(F)cc3Cl)N=C(c3nccs3)N2C1)NS(=O)(=O)c1ccccc1` [Example 17] displayed an EC50 greater than 100 nM.

Compound `CC(=O)NS(=O)(=O)N[C@H]1CC2=C(c3cnn(C(F)F)c3)[C@H](c3ccc(F)cc3Cl)N=C(c3nccs3)N2C1` [Example 20] registered an EC50 greater than 400 nM.

Turning to `Fc1ccc([C@@H]2N=C(c3nccs3)N3C[C@@H](OCc4ccccc4)CC3=C2c2cnn(C(F)F)c2)c(Cl)c1` [Example 25], the EC50 was greater than 200 nM.

On to `OCC(CO)CC1=C(c2cnn(C(F)F)c2)[C@H](c2ccc(F)cc2Cl)N=C(c2nccs2)N1` [Example 26], for which the EC50 is greater than 100 nM.

The compound `OCC1CC2=C(c3cnn(C(F)F)c3)[C@H](c3ccc(F)cc3Cl)N=C(c3nccs3)N2C1` (some centres unmarked) [Example 27] displayed an EC50 greater than 100 nM.

Take `CS(=O)(=O)OCC1CC2=C(c3cnn(C(F)F)c3)[C@H](c3ccc(F)cc3Cl)N=C(c3nccs3)N2C1` (some centres unmarked) [Example 28]: the EC50 was greater than 100 nM.

In the case of `CC(=O)NCC1CC2=C(c3cnn(C(F)F)c3)[C@H](c3ccc(F)cc3Cl)N=C(c3nccs3)N2C1` (some centres unmarked) [Example 29], the EC50 was greater than 100 nM.

Consider `CS(=O)(=O)NCC1CC2=C(c3cnn(C(F)F)c3)[C@H](c3ccc(F)cc3Cl)N=C(c3nccs3)N2C1` (some centres unmarked) [Example 30], for which the EC50 was greater than 100 nM.

The compound `COC(=O)NCC1CC2=C(c3cnn(C(F)F)c3)[C@H](c3ccc(F)cc3Cl)N=C(c3nccs3)N2C1` (some centres unmarked) [Example 31] came in with an EC50 greater than 100 nM.

Consider `CN(C)C(=O)NCC1CC2=C(c3cnn(C(F)F)c3)[C@H](c3ccc(F)cc3Cl)N=C(c3nccs3)N2C1` (some centres unmarked) [Example 32], for which the EC50 is greater than 100 nM.

As for `O=S(=O)(NCC1CC2=C(c3cnn(C(F)F)c3)[C@H](c3ccc(F)cc3Cl)N=C(c3nccs3)N2C1)C1CC1` (some centres unmarked) [Example 33], the EC50 was greater than 100 nM.

In the case of `CS(=O)(=O)OC[C@]1(F)CC2=C(c3cnn(C(F)F)c3)[C@H](c3ccc(F)cc3Cl)N=C(c3nccs3)N2C1` [Example 34], the EC50 was greater than 400 nM.

As for `C[C@]1(CN=[N+]=[N-])CC2=C(c3cnn(C(F)F)c3)[C@H](c3ccc(F)cc3Cl)N=C(c3nccs3)N2C1` [Example 36], the EC50 was greater than 400 nM.

Take `C[C@@]1(CN=[N+]=[N-])CC2=C(c3cnn(C(F)F)c3)[C@H](c3ccc(F)cc3Cl)N=C(c3nccs3)N2C1` [Example 37]: the EC50 is greater than 400 nM.

`CC1(CNS(C)(=O)=O)CC2=C(c3cnn(C(F)F)c3)[C@H](c3ccc(F)cc3Cl)N=C(c3nccs3)N2C1` (some centres unmarked) [Example 38] gave an EC50 greater than 400 nM.

On to `C=CC[C@]1(COS(C)(=O)=O)CC2=C(c3cnn(C(F)F)c3)[C@H](c3ccc(F)cc3Cl)N=C(c3nccs3)N2C1` [Example 39], for which the EC50 is greater than 400 nM.

The compound `C=CC[C@@]1(COS(C)(=O)=O)CC2=C(c3cnn(C(F)F)c3)[C@H](c3ccc(F)cc3Cl)N=C(c3nccs3)N2C1` [Example 40] displayed an EC50 greater than 400 nM.

`[N-]=[N+]=NCC1(F)CC2=C(c3cnn(C(F)F)c3)[C@H](c3ccc(F)cc3Cl)N=C(c3nccs3)N2C1` (some centres unmarked) [Example 41] showed a 50% effective concentration (EC50) greater than 400 nM.

For `CN(C)C(=O)NCC1(C)CC2=C(c3cnn(C(F)F)c3)[C@H](c3ccc(F)cc3Cl)N=C(c3nccs3)N2C1` (some centres unmarked) [Example 42], the EC50 is greater than 400 nM.

`Fc1ccc([C@@H]2N=C(c3nccs3)N3C(=C2c2cnn(C(F)F)c2)CC2CCCC23)c(Cl)c1` (some centres unmarked) [Example 47] showed an EC50 greater than 400 nM.

As for `[N-]=[N+]=N[C@@]1(CO)CC2=C(c3cnn(C(F)F)c3)[C@H](c3ccc(F)cc3Cl)N=C(c3nccs3)N2C1` [Example 48], the EC50 is greater than 400 nM.

The compound `[N-]=[N+]=NC[C@]1(N=[N+]=[N-])CC2=C(c3cnn(C(F)F)c3)[C@H](c3ccc(F)cc3Cl)N=C(c3nccs3)N2C1` [Example 52] showed an EC50 greater than 400 nM.

As to `[N-]=[N+]=NC[C@@]1(N=[N+]=[N-])CC2=C(c3cnn(C(F)F)c3)[C@H](c3ccc(F)cc3Cl)N=C(c3nccs3)N2C1` [Example 53], the EC50 was greater than 400 nM.

`COC(=O)OC[C@]1(N=[N+]=[N-])CC2=C(c3cnn(C(F)F)c3)[C@H](c3ccc(F)cc3Cl)N=C(c3nccs3)N2C1` [Example 54] had an EC50 greater than 400 nM.

Take `CC(=O)OC[C@]1(N=[N+]=[N-])CC2=C(c3cnn(C(F)F)c3)[C@H](c3ccc(F)cc3Cl)N=C(c3nccs3)N2C1` [Example 58]: the EC50 was greater than 400 nM.

The compound `COC(=O)[C@](N)(CO)CC1=C(c2ccn(C(F)F)n2)[C@H](c2ccc(F)cc2Cl)N=C(c2nccs2)N1` [Example 62] showed an EC50 greater than 400 nM.

The compound `COC(=O)[C@](CO)(CC1=C(c2ccn(C(F)F)n2)[C@H](c2ccc(F)cc2Cl)N=C(c2nccs2)N1)NC(=O)OC(C)(C)C` [Example 63] came in with an EC50 greater than 400 nM.

Compound `COC(=O)[C@@]1(NC(=O)OC(C)(C)C)CC2=C(c3ccn(C(F)F)n3)[C@H](c3ccc(F)cc3Cl)N=C(c3nccs3)N2C1` [Example 64] returned an EC50 greater than 400 nM.

As to `COC(=O)[C@]1(NC(=O)OC(C)(C)C)CC2=C(c3ccn(C(F)F)n3)[C@H](c3ccc(F)cc3Cl)N=C(c3nccs3)N2C1` [Example 65], the EC50 is greater than 400 nM.

In the case of `COC(=O)[C@@]1(NS(C)(=O)=O)CC2=C(c3ccn(C(F)F)n3)[C@H](c3ccc(F)cc3Cl)N=C(c3nccs3)N2C1` [Example 67], the EC50 is greater than 400 nM.
